Values joined by “and” are separate entries in the source; they are usually repeats but may differ in a detail not shown here. Equal values may be shown once. “Also recorded” adds a separate entry of the source. Read-outs that look alike come from different tables or passages of the source.
How the values were obtained:
[1] = Singlet oxygen scavenging test (Rose Bengal / iodide); conditions: % inhibition of control; compared with Coenzyme Q10 and green tea polyphenols
Protocol: Singlet forms of molecular oxygen are excited electronic configurations that are more reactive than the spin-restricted ground state. These forms can be generated in tissues by a variety of mechanisms. Particularly relevant to the skin is light-induced production of singlet oxygen. The singlet oxygen scavenging test is performed by irradiation of a reaction mixture that contains a photosensitizer dye (Rose Bengal) and iodide ions. The excited dye transfers its energy to ground state oxygen to generate singlet oxygen which in turn oxidizes iodide to I3^−. Production of I3^− is followed spectrophotometrically at 355 nm. If a test sample is a singlet oxygen quencher, it will decrease the rate of I3^− production.

[2] = tested on: normal human keratinocytes; assay: UVB-induced TNF-α production by keratinocytes (ELISA, normalized to MTT viability); conditions: UVB 35 mJ/cm2, 24 hrs; low concentrations of NDGA
MMP 13 [3] = conditions: primary human chondrocytes; cited from earlier work
[4] = Hydroxyl radical scavenging (Fenton reaction, terephthalic acid); conditions: compared with green tea polyphenols, glutathione, vitamin E
Protocol: Hydroxyl radical scavenging of NDGA was measured by generation of .OH via the Fenton reaction with terephthalic acid as oxidizable substrate. Hydroxylation of terephthalic acid results in production of a fluorescent product. The rate of the reaction is determined by measuring the time course of fluorescence increase. If a test sample is a hydroxyl radical scavenger, it will decrease the reaction rate.
FIG. 6 is a table displaying hydroxyl radical scavenging activity of NDGA in comparison with green tea polyphenols (GTP) and Vitamin E, indicated in the left column.

MMP 13 [5] = conditions: human chondrosarcoma cell line SW1353; cited from earlier work
[6] = tested on: AP-1 transcription factor; conditions: keratinocyte cell line HaCaT; very low levels; cited from earlier work
[7] = target: MMP-9 (also known as gelatinase) (Homo sapiens, UniProt P14780); assay: MMP inhibition, fluorogenic peptide assay; conditions: for MMP-9 inhibitory activity (in words): fluorogenic peptide assay
Protocol: In this system, the substrate is a fluorogenic peptide which, when cleaved by the MMP, undergoes an increase in fluorescence. The reaction is followed by monitoring the increase in the fluorescence of the reaction mixture for 2 hours. The rate of fluorescence increase is a measure of the reaction rate. The assay is performed in microtiter plates using triplicate wells per condition. The test sample contains specific MMP and the putative MMP inhibitor at several concentrations and the mean rate of the reaction at each of these conditions is compared to the reaction rate in the absence of inhibitor. The concentration of the test sample that inhibits the reaction rate (i.e., MMP inhibition) by 50% is defined as the “50% Inhibitory Concentration” or IC50.

[8] = UV-induced lipid peroxidation of lecithin liposomes (malonaldehyde); conditions: relative to EGCG taken as 100%
Protocol: The ability of NDGA to prevent UV-induced lipid peroxidation was measured in comparison to other antioxidant industry standards such as vitamin E, vitamin C and green tea polyphenols. The assay was performed by irradiating a suspension of lecithin liposomes with UV light for 4 hours, in the absence or in the presence of the different compounds. Malonaldehyde levels (a breakdown product of oxidized lipids) were measured in aliquots of the reaction mixture at different times. The rate of lipid oxidation was calculated from the increase in malonaldehyde content. Relative potency was calculated by taking epigallocatechin gallate (EGCG) as 100%. The antioxidant used in the comparisons are listed in the left column. The middle column lists the effective concentration at which the compound is 50% effective (EC 50) for inhibition of lipid peroxidation, while the right column lists the relative potency of the samples, as compared to polyphenol of tea, which is taken as 100.

keratinocytes = assay: Integrin expression of keratinocytes (ELISA); format: cell-based; conditions: 48 hrs
Protocol: (§1) In addition, SHA stimulates collagen and integrin synthesis of keratinocytes and fibroblasts. This was measured by treating keratinocyte or fibroblast cultures with SHA for 48 hrs and testing the medium for collagen and integrin secretion using appropriate antibodies using commercially available ELISA kits. The ELISA measures the secretion of collagen-1 and three different types of integrins, integrin alpha-2, -3 and -5. […] The data, presented in the right column, are expressed as a % stimulation of collagen secretion as compared to the control. […] Stimulation of collagen synthesis would provide more integrity to the dermis and would benefit in reducing wrinkles and will provide anti-aging benefits.
(§2) SHA can also stimulate integrin expression of fibroblasts and keratinocytes. […] In each table, that left column lists the various concentrations of SHA used in the tests, while the three right columns present integrin expression data, for different varieties of integrin, expressed as a % stimulation with respect to the control (0 mM SHA). […] Integrin is a vital component of the cell extracellular matrix that helps in cell adhesion and attachment. The increased amount of integrin helps cells to attach and grow, making skin firmer and more cellular. […]

[9] = tested on: normal human keratinocytes; assay: Cornified envelope formation / differentiation of keratinocytes; format: cell-based; conditions: 0.15 mM calcium medium; relative to high calcium (1 mM) cultures
Protocol: To measure the induction of differentiation of keratinocytes, cultures of normal human keratinocytes were incubated with medium containing 0.15 mM calcium (low calcium prevents CE formation and keeps cells in growth mode). The cells were treated with different amounts of SHA and the amount of the highly cross-linked, detergent insoluble CE formation was quantified after dissolving the cells in 2% SDS/20 mM Dithiothrietol (DTT). The insoluble CE was centrifuged, resuspended in water and the optical density of the turbid solution was measured at 400 nm. The increase in turbidity indicates increased CE formation. […] The results, presented in the right column, are expressed relative to high calcium (1 mM) containing cultures.

fibroblasts [10] = assay: Fibroblast collagen-1 secretion (ELISA); format: cell-based; conditions: 0.1 mM SHA, 48 hrs
Protocol: as §1

mushroom tyrosinase = assay: Inhibition of mushroom tyrosinase (tyrosine to DOPAchrome, OD475); format: biochemical
Protocol: The skin lightening effect of SHA was determined by measuring the inhibition of tyrosinase since tyrosinase is the enzyme that catalyzes the rate limiting steps in melanin synthesis. Inhibition of mushroom tyrosinase was assayed by measuring conversion of tyrosine to DOPAchrome (OD475) in the presence of varying concentrations of test sample. […] Thirty nanomolar SHA inhibited over 30% of the activity. The IC50 is 60 nM.

[11] = tested on: normal human keratinocytes; assay: UVB-induced PGE2 production by keratinocytes (ELISA, normalized to MTT viability); format: cell-based; conditions: UVB 30 mJ/cm2; SHA at as low as 5 uM
Protocol: The anti-inflammatory effect of SHA was measured by pretreating normal human keratinocytes with different concentrations of SHA for 24 hrs. The cells were UVB irradiated with a single sub-lethal dose of 30 mJ/cm2 using a Phillips TL20W12 tube. Cells were further incubated for 24 hrs with SHA and prostaglandin E2 (PGE2) levels in the supernatant media samples were analyzed by ELISA. 20 uM indomethacin was included as a positive control as an anti-inflammatory agent. The cell viability was also tested at the end of the 24 hr incubation period using the MTT metabolism method. […] The data was expressed as PGE2 production normalized to cell viability. PGE2, or prostaglandin E2, is an inflammatory mediator produced during inflammatory reactions in the skin. Any agents that inhibit the production of PGE2 will therefore have a beneficial effect of preventing inflammation (in other words, an anti-inflammatory effect). The top three bars display the effect of SHA at various concentrations on the UVB irradiated cells, the 4th bar the effect of indomethscin, the 5th bar the effect of UVB radiation on untreated cells, while the bottom bar is a control (untreated cells, not UVB irradiated).

fibroblasts [12] = assay: Integrin expression of fibroblasts (ELISA); format: cell-based; conditions: 48 hrs
Protocol: as §1, §2

MMP-9 (also known as gelatinase), sequence (P14780 94-707, species assumed): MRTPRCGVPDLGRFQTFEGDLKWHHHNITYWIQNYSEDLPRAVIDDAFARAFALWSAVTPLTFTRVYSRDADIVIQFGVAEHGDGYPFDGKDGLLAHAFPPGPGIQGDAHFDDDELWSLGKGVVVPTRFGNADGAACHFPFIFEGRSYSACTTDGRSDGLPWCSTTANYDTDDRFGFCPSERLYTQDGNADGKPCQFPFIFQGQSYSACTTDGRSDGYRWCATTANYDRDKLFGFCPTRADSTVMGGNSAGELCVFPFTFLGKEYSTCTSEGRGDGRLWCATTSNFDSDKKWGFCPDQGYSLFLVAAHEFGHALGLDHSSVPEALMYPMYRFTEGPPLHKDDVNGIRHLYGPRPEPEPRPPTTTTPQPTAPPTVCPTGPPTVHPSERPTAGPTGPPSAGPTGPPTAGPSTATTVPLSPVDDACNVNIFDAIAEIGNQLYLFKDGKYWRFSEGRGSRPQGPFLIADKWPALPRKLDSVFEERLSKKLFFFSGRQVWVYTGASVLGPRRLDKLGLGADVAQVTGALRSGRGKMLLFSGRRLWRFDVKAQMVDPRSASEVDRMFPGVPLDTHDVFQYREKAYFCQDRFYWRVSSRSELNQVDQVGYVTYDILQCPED

| Compound | singlet oxygen scavenging activity [1] | TNF alpha production normalized to cell viability [2] | inhibition of TNF-α induced MMP 13 mRNA and protein induction (MMP 13 [3]) | hydroxyl radical scavenging activity [4] | inhibition of TNF-α induced MMP 13 mRNA and protein induction (MMP 13 [5]) | inhibition of AP-1 activation [6] | IC50 ([7]; IC50 MMP-9 inhibition, fluorogenic peptide, 2 hours) | MMP-9 inhibitory activity (in words) [7] | relative potency, inhibition of lipid peroxidation [8] | integrin expression (alpha-2, -3, -5) vs control (keratinocytes) | cornified envelope formation (terminal differentiation) [9] | stimulation of collagen secretion compared to control (fibroblasts [10]) | IC50 (mushroom tyrosinase) [µM] | inhibition of tyrosinase activity (mushroom tyrosinase; Thirty nanomolar SHA) | PGE2 production normalized to cell viability (anti-inflammatory effect) [11] | integrin expression (alpha-2, -3, -5) vs control (fibroblasts [12]) |
| --- | --- | --- | --- | --- | --- | --- | --- | --- | --- | --- | --- | --- | --- | --- | --- | --- |
| CC(Cc1ccc(O)c(O)c1)C(C)Cc1ccc(O)c(O)c1 (stereo not drawn) [NDGA, nordihydroguaiaretic acid] | very powerful singlet oxygen scavenger, equivalent to green tea polyphenols and better than coenzyme Q10 | effectively blocked UVB-induced inflammation in keratinocytes; also recorded: much more effective than dexamethasone or green tea polyphenols | inhibits TNF-α induced MMP 13 mRNA and protein induction | slightly more effective than green tea polyphenols and far more potent than glutathione or vitamin E | inhibits TNF-α induced MMP 13 mRNA and protein induction | at very low levels inhibits AP-1 activation | ~232 µM and ~100 µM | very high MMP-9 inhibitory activity | twice as potent as the next most effective antioxidant (EGCG); also recorded: two orders of magnitude more potent than the vitamin E varieties |  |  |  |  |  |  |  |
| O=C(NO)c1ccccc1O [SHA, Salicylhydroxamate] |  |  |  |  |  |  |  | excellent and potent inhibitors of matrix metalloproteases |  | increasing the integrin expression of keratinocytes | induces terminal differentiation of keratinocytes, increases the formation of CE | significantly stimulated the collagen synthesis of fibroblasts | 0.06 | over 30% | potent anti-inflammatory effects | increasing the integrin expression of keratinocytes and fibroblasts |
| NC(Cc1c[nH]c2ccccc12)C(=O)NO (stereo not drawn) [tryptophan hydroxamate] |  |  |  |  |  |  |  | excellent and potent inhibitors of matrix metalloproteases |  |  |  |  |  |  |  |  |

Reference: patent US20060165641A1, “Cosmetic compositions containing combinations of hydroxamate derivatives and antioxidants in a liposomal delivery system” (priority 2005, published 2006)
